Measurements published in patent publication US12344610B2, “APOL1 inhibitors and methods of use” (Maze Therapeutics, Inc., priority 2022, dated 2025).
Read-outs that look alike come from different tables or passages of the source.

Experiments:
Type in all cases: cell-based
Conditions in all cases: geometric mean of at least 2 assay runs, † = single assay run
[1] = system: Trypanosoma brucei Lister 427 VSG221 with APOL1 G2 recombinant protein; experiment: APOL1 G2 trypanosome cell rescue assay (Example B5)
Outline: (§1)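 Luminescent ATP read-out (CellTiter-Glo) of trypanosome viability after 20 h at 37° C. Bloodstream T. brucei Lister 427 VSG221, 250/well in modified HMI-9, were exposed to recombinant mature APOL1 (aa 28-398) from a 2 μg/mL addition, plus compound in 11-point 2-fold series.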

[2] = system: HEK293 cells overexpressing APOL1 G2; experiment: APOL1 G2 HEK293 cell rescue assay (reversal of cell death caused by overexpression of APOL1)
Outline: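 Each compound tested in duplicate wells on one plate per run, with values usually the geometric mean across at least two runs on different days, occasionally from one run only. Read-out: concentration giving half-maximal rescue of APOL1 G2 overexpression-induced death of HEK293 cells.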

[3] = system: Trypanosoma brucei Lister 427 VSG221 with APOL1 G1 recombinant protein; experiment: APOL1 G1 trypanosome cell rescue assay (Example B5)
Outline: as §1

[4] = Trypanosoma brucei, 20 h, read-out: APOL1 G2 Trypanosome Rescue EC50, Trypanosoma brucei Lister 427 VSG221 with APOL1 G2 recombinant protein, 20 hours, CellTiter-Glo
[5] = Homo sapiens, HEK293, HEK293 overexpressing APOL1 G2
[6] = Trypanosoma brucei, 20 h, read-out: APOL1 G1 Trypanosome Rescue EC50, Trypanosoma brucei Lister 427 VSG221 with APOL1 G1 recombinant protein, 20 hours, CellTiter-Glo
[7] = read-out: APOL1 G2 Trypanosome Rescue EC50, Trypanosoma brucei Lister 427 VSG221 with APOL1 G2 recombinant protein, 20 hours, CellTiter-Glo
[8] = read-out: APOL1 G1 Trypanosome Rescue EC50, Trypanosoma brucei Lister 427 VSG221 with APOL1 G1 recombinant protein, 20 hours, CellTiter-Glo

Structure (SMILES)	EC50 [1, 4] [nM]	EC50 [2, 5] [nM]	EC50 [3, 6] [nM]	EC50 [1, 7] [nM]	EC50 ([2]; HEK293 overexpressing APOL1 G2) [nM]	EC50 [3, 8] [nM]
CC(c1ncc(OCCN2CCC3(CC2)C(=O)Nc2ccc(Cl)cc23)cn1)S(C)(=O)=O (single isomer, unassigned) [Compound 2, 5-chloro-1′-[2-({2-[(1S) or (1R)-1-methanesulfonylethyl]pyrimidin-5-yl}oxy)ethyl]-1,2-dihydrospiro[indole-3,4′-piperidin]-2-one]	56.3	134	191	–	–	–
CC(c1ncc(OCCN2CCC3(CC2)C(=O)Nc2ccc(Cl)cc23)cn1)S(C)(=O)=O (single isomer, unassigned) [Compound 3, 5-chloro-1′-[2-({2-[(1R) or (1S)-1-methanesulfonylethyl]pyrimidin-5-yl}oxy)ethyl]-1,2-dihydrospiro[indole-3,4′-piperidin]-2-one]	–	–	–	92	142	323
CC(O)c1ncc(OCCN2CCC3(CC2)C(=O)Nc2ccc(C#N)cc23)cc1C(F)(F)F (single isomer, unassigned) [Compound 376, 1′-[2-({6-[(1S) or (1R)-1-hydroxyethyl]-5-(trifluoromethyl)pyridin-3-yl}oxy)ethyl]-2-oxo-1,2-dihydrospiro[indole-3,4′-piperidine]-5-carbonitrile]	–	46.9	–	39.9	–	115
CC(O)c1ncc(OCCN2CCC3(CC2)C(=O)Nc2ccc(C#N)cc23)cc1C(F)(F)F (single isomer, unassigned) [Compound 377, 1′-[2-({6-(1S) or (1R)-1-hydroxyethyl]-5-(trifluoromethyl)pyridin-3-yl}oxy)ethyl]-2-oxo-1,2-dihydrospiro[indole-3,4′-piperidine]-5-carbonitrile]	–	–	–	97.8	85.9	271
CS(=O)(=O)C1(c2ncc(OCCN3CCC4(CC3)C(=O)Nc3ccc(C(F)F)cc34)cn2)CC1 [Compound 5, 5-(difluoromethyl)-1′-(2-{[2-(1-methanesulfonylcyclopropyl)pyrimidin-5-yl]oxy}ethyl)-1,2-dihydrospiro[indole-3,4′-piperidin]-2-one]	52	213	171	–	–	–
CS(=O)(=O)C1(c2ncc(OCCN3CCC4(CC3)C(=O)Nc3ccc(OC(F)F)cc34)cn2)CC1 [Compound 6, 5-(difluoromethoxy)-1′-(2-{[2-(1-methanesulfonylcyclopropyl)pyrimidin-5-yl]oxy}ethyl)-1,2-dihydrospiro[indole-3,4′-piperidin]-2-one]	137	121	470	–	–	–
O=C1CCc2cc(OCCN3CCC4(CC3)C(=O)Nc3ccc(Cl)cc34)ccc2N1 [Compound 82, 5-chloro-1′-{2-[(2-oxo-1,2,3,4-tetrahydroquinolin-6-yl)oxy]ethyl}-1,2-dihydrospiro[indole-3,4′-piperidin]-2-one]	113	72.2	344	–	–	–
CS(=O)(=O)C1(c2c(F)cc(OCCN3CCC4(CC3)C(=O)Nc3ccc(C#N)cc34)cc2F)COC1 [Compound 84, 1′-{2-[3,5-difluoro-4-(3-methanesulfonyloxetan-3-yl)phenoxy]ethyl}-2-oxo-1,2-dihydrospiro[indole-3,4′-piperidine]-5-carbonitrile]	50	64.9	144	–	–	–
O=C1Nc2ccc(Cl)cc2C12CCN(CCOc1ccc3c(cnn3[C@H]3C[C@@H](O)C3)c1)CC2 [Compound 85, 5-chloro-1′-[2-({1-[(cis)-3-hydroxycyclobutyl]-1H-indazol-5-yl}oxy)ethyl]-1,2-dihydrospiro[indole-3,4′-piperidin]-2-one]	48.5	70.3	190	–	–	–
O=C1Nc2ccc(Cl)cc2C12CCN(CCOc1ccc3c(cnn3[C@H]3C[C@H](O)C3)c1)CC2 [Compound 86, 5-chloro-1′-[2-({1-[(trans)-3-hydroxycyclobutyl]-1H-indazol-5-yl}oxy)ethyl]-1,2-dihydrospiro[indole-3,4′-piperidin]-2-one]	38.4	46.5	137	–	–	–
O=C1Nc2ccc(Cl)cc2C12CCN(CCOc1ccc3[nH]ncc3c1)CC2 [Compound 87, 5-chloro-1′-[2-(2H-indazol-5-yloxy)ethyl]-1,2-dihydrospiro[indole-3,4′-piperidin]-2-one]	95.8	103	383	–	–	–
Cn1c(=O)[nH]c2cc(OCCN3CCC4(CC3)C(=O)Nc3ccc(Cl)cc34)ccc21 [Compound 88, 5-chloro-1′-{2-[(1-methyl-2-oxo-2,3-dihydro-1H-1,3-benzodiazol-5-yl)oxy]ethyl}-1,2-dihydrospiro[indole-3,4′-piperidin]-2-one]	138	121	561	–	–	–
CS(=O)(=O)c1c(F)cc(OCCN2CCC3(CC2)C(=O)Nc2ccc(Cl)cc23)cc1F [Compound 89, 5-chloro-1′-[2-(3,5-difluoro-4-methanesulfonylphenoxy)ethyl]-1,2-dihydrospiro[indole-3,4′-piperidin]-2-one]	32.7	55.7	114	–	–	–
CS(=O)(=O)c1c(F)cc(OCCN2CCC3(CC2)C(=O)Nc2ccc(C#N)cc23)cc1F [Compound 90, 1′-[2-(3,5-difluoro-4-methanesulfonylphenoxy)ethyl]-2-oxo-1,2-dihydrospiro[indole-3,4′-piperidine]-5-carbonitrile]	163	151	679	–	–	–
COC(=O)C1(S(=O)(=O)c2ccc(OCCN3CCC4(CC3)C(=O)Nc3ccc(Cl)cc34)cc2)CC1 [Compound 91, methyl 1-[4-(2-{5-chloro-2-oxo-1,2-dihydrospiro[indole-3,4′-piperidin]-1′-yl}ethoxy)benzenesulfonyl]cyclopropane-1-carboxylate]	20.4	24.5	82.7	–	–	–
CC1(S(=O)(=O)c2ccc(OCCN3CCC4(CC3)C(=O)Nc3ccc(Cl)cc34)cc2)COC1 [Compound 92, 5-chloro-1′-(2-{4-[(3-methyloxetan-3-yl)sulfonyl]phenoxy}ethyl)-1,2-dihydrospiro[indole-3,4′-piperidin]-2-one]	28.5	51.5	99.3	–	–	–
CC1(S(=O)(=O)c2ccc(OCCN3CCC4(CC3)C(=O)Nc3ccc(C#N)cc34)cc2)COC1 [Compound 93, 1′-(2-{4-[(3-methyloxetan-3-yl)sulfonyl]phenoxy}ethyl)-2-oxo-1,2-dihydrospiro[indole-3,4′-piperidine]-5-carbonitrile]	56.9	90.9	264	–	–	–
CS(=O)(=O)N1CCc2cc(OCCN3CCC4(CC3)C(=O)Nc3ccc(Cl)cc34)ccc2C1 [Compound 94, 5-chloro-1′-{2-[(2-methanesulfonyl-1,2,3,4-tetrahydroisoquinolin-6-yl)oxy]ethyl}-1,2-dihydrospiro[indole-3,4′-piperidin]-2-one]	129	140	424	–	–	–
CN1C(=O)CCc2cc(OCCN3CCC4(CC3)C(=O)Nc3ccc(C#N)cc34)ccc21 [Compound 95, 1′-{2-[(1-methyl-2-oxo-1,2,3,4-tetrahydroquinolin-6-yl)oxy]ethyl}-2-oxo-1,2-dihydrospiro[indole-3,4′-piperidine]-5-carbonitrile]	222	246	703	–	–	–
CC(C)N1C(=O)CCc2cc(OCCN3CCC4(CC3)C(=O)Nc3ccc(C#N)cc34)ccc21 [Compound 96, 2-oxo-1′-(2-{[2-oxo-1-(propan-2-yl)-1,2,3,4-tetrahydroquinolin-6-yl]oxy}ethyl)-1,2-dihydrospiro[indole-3,4′-piperidine]-5-carbonitrile]	53	50.5	143	–	–	–
CC(C)N1C(=O)CCc2cc(OCCN3CCC4(CC3)C(=O)Nc3ccc(Cl)cc34)ccc21 [Compound 97, 5-chloro-1′-(2-{[2-oxo-1-(propan-2-yl)-1,2,3,4-tetrahydroquinolin-6-yl]oxy}ethyl)-1,2-dihydrospiro[indole-3,4′-piperidin]-2-one]	40.6	44.6	98.4	–	–	–
CS(=O)(=O)N(CCO)c1ccc(OCCN2CCC3(CC2)C(=O)Nc2ccc(Cl)cc23)cc1 [Compound 98, N-[4-(2-{5-chloro-2-oxo-1,2-dihydrospiro[indole-3,4′-piperidin]-1′-yl}ethoxy)phenyl]-N-(2-hydroxyethyl)methanesulfonamide]	72.2	54.4	259	–	–	–
O=C1CCc2cc(OCCN3CCC4(CC3)C(=O)Nc3ccc(Cl)cc34)cnc2N1[C@H]1C[C@H](O)C1 [Compound 267, 5-chloro-1′-[2-({7-oxo-8-[(trans)-3-hydroxycyclobutyl]-5,6,7,8-tetrahydro-1,8-naphthyridin-3-yl}oxy)ethyl]-1,2-dihydrospiro[indole-3,4′-piperidin]-2-one]	33.7	37.8	115	–	–	–
